Consider 20 compounds from PMC8069510, “Synthesis and Evaluation of Novel 2,2-Dimethylthiochromanones as Anti-Leishmanial Agents” (Molecules, 2021).

Like-named read-outs stand apart in the source and are kept apart here. Where only a bound is given, the exact number is not on record here.

The test system of series [1] is L. infantum axenic amastigotes. In words: Antileishmanial activity on L. infantum axenic amastigotes (luciferase luminescence). Particulars: for IC50 / activity against L. infantum (in words): axenic amastigotes; for IC50: 48 h incubation, mean (standard deviation), three independent experiments; for S.I. (Selectivity Index) = CC50/IC50: CC50 J774A.1 / IC50 L. infantum axenic amastigotes. In kind it is cell-based, Leishmania infantum. As for the experimental part:
(§1) Selected compounds were evaluated for their leishmanicidal ability as previously described, through examining their activity on L. infantum axenic amastigotes, and the results are expressed in Table 2 as IC50 values. In parallel, evaluation of the cytotoxicity of test compounds was performed by MTT assay using the J774A.1 macrophage cell line. Results are presented as CC50 values.
4.2. Bioassay Procedures: Antileishmanial Activity on L. infantum Axenic Amastigotes
L. infantum promastigotes (MHOM/MA/67/ITMAP-263, CNR Leishmania, Montpellier, France, expressing luciferase activity) were cultivated in RPMI 1640 medium supplemented with 10% foetal calf serum (FCS), 2 mM L-glutamine and antibiotics (100 U/mL penicillin and 100 μg/mL streptomycin) and harvested in the logarithmic phase of growth by centrifugation at 900× g for 10 min. The supernatant was carefully removed and replaced by the same volume of RPMI 1640 complete medium at pH 5.4, and then incubated for 24 h at 24 °C. The acidified promastigotes were then incubated for 24 h at 37 °C in a ventilated flask to transform promastigotes into axenic amastigotes. The effects of the tested compounds on the growth of L. infantum axenic amastigotes were assessed as follows. L. infantum amastigotes were incubated at a density of 2 × 10^6 parasites/mL in sterile 96-well plates with various concentrations of compounds dissolved in DMSO (final concentration less than 0.5% v/v), in duplicate. Appropriate controls, DMSO and amphotericin, were added to each set of experiments. After a 48 h incubation period at 37 °C, each plate-well was then microscopically examined to detect any precipitate formation. To estimate the luciferase activity of axenic amastigotes, 80 μL of each well were transferred to white 96-well plates, Steady Glow® reagent (Promega, Charbonnières-les-Bains, France) was added according to the manufacturer’s instructions, and plates were incubated for 2 min. The luminescence was measured using a Microbeta Luminescence Counter (Perkin Elmer, Villebon-sur-Yvette, France). The inhibitory concentration 50% (IC50) was defined as the concentration of drug required to inhibit by 50% the metabolic activity of L. infantum amastigotes compared to control. IC50 values were calculated by non-linear regression analysis on dose response curves, using the TableCurve 2D V5 software (Systat Software, San Jose, CA, USA). IC50 values represent the mean of three independent experiments.

For series [2], the system named is axenic amastigotes of L. infantum. On the set-up: method as in PMID 32258470. Particulars: cited from earlier work.
In series [3] the test system is intracellular amastigotes of L. infantum. On the set-up: method as in PMID 32258470. The conditions noted are these: cited from earlier work.
In series [4] the test system is amastigotes of L. infantum. On the set-up: method as in PMID 29935351. Particulars: cited from earlier work.
Series [5] has as its system amastigotes of Trypanosoma cruzi. Set-up: method as in PMID 29935351. The conditions noted are these: cited from earlier work.
The next series concerns L. (V) panamensis. The conditions noted are these: read-out: EC50 against L. (V) panamensis, cited from earlier work.
On the set-up of series [6]: method as in PMID 29286346. The conditions noted are these: cited from earlier work.
In the next series the test system is L. braziliensis. On the set-up: method as in PMID 32734890. Particulars: topical application, co-formulated with saponins; cited from earlier work.
The subject of a further series is L. pifanoi. Set-up: method as in PMID 32734890. Particulars: topical application, co-formulated with saponins; cited from earlier work.
The nature of series [7]: Cytotoxicity by MTT assay on J774A.1 macrophage cell line. Type of series: cell-based, mouse. Particulars: mouse, J774A.1 macrophage cells; MTT, 72 h incubation; mean (standard deviation). The procedure:
as §1
(§2) 4.3. Cytotoxicity Evaluation on J774A.1 Cells
(§3) Evaluation of the cytotoxicity of test compounds was performed by MTT assay using the J774A.1 cell line (mouse macrophage cell line, Sigma-Aldrich). Briefly, cells (5 × 10^4 cells/mL) in 100 µL of complete medium, [DMEM High glucose supplemented with 10% fetal calf serum (FCS), 2 mM L-glutamine and antibiotics (100 U/mL penicillin and 100 µg/mL streptomycin)] were seeded into each well of 96-well plates and incubated at 37 °C in a humidified 5% CO2 with 95% air atmosphere. After a 24 h incubation, 100 µL of medium with various product concentrations and appropriate controls were added and the plates were incubated for 72 h at 37 °C. Each plate-well was then examined under the microscope to detect possible precipitate formation before the medium was aspirated from the wells. 100 µL of MTT solution (0.5 mg/mL in RPMI) was then added to each well. Cells were incubated for 2 h at 37 °C. After this time, the MTT solution was removed and DMSO (100 µL) was added to dissolve the resulting formazan crystals. Plates were shaken vigorously (300 rpm) for 5 min. The absorbance was measured at 570 nm with a microplate spectrophotometer. DMSO was used as blank and doxorubicin (Sigma Aldrich, Saint-Quentin-Fallavier, France) as positive control. CC50 values were calculated by non-linear regression analysis on dose–response curves, using the TableCurve 2D V5 software.
A general note: Tetrazolium assays rely on reduction of a dye to a coloured formazan, in cell work by metabolically active cells.

In a further series the test system is J774A.1 cells. Described as above. In kind it is cell-based, mouse. As for the experimental part: as §1, §2, §3

Consider `C[C@@H]1[C@H](O)[C@@H](C)/C=C/C=C/C=C/C=C/C=C/C=C/C=C/[C@H](O[C@@H]2O[C@H](C)[C@@H](O)[C@H](N)[C@@H]2O)C[C@@H]2O[C@](O)(C[C@@H](O)C[C@@H](O)[C@H](O)CC[C@@H](O)C[C@@H](O)CC(=O)O[C@H]1C)C[C@H](O)[C@H]2C(=O)O` [Amphotericin B, reference compound], for which 0.072 µM corresponded to half-maximal inhibition in series [1] (Leishmania infantum) (IC50).

Consider `CCCCCCCCNCc1ccc2c(c1)C(=O)CC(C)(C)O2` [Compound 3], for which the IC50 (commonly the concentration at which inhibition is half-maximal) in [2] was 25.3 µM; in series [3], 24.6 µM.

Take `CCCCCCCCNCc1ccc(OC)cc1` [Compound 5]: the IC50 in series [4] was 1.3 µM; in series [5], 5.8 µM.

Regarding `O=C1C=C(c2ccc(C(F)(F)F)cc2)S(=O)(=O)c2ccc(F)cc21` [Compound 6], in the series with L. (V) panamensis, the EC50 – broadly, the concentration needed to bring the measured effect to its halfway point – was < 10 µM.

In the case of `NC(=S)N/N=C1\CC(c2ccccc2)Sc2ccccc21` (stereo not shown) [Compound 7], in the series with L. (V) panamensis (acyl hydrazone derivatives), the EC50 was 5.1 µM. Also, the “cytotoxicity (in words)” value in series [6] is “low cytotoxicity”.

As for `O=C(N/N=C1\CCSc2ccccc21)c1ccccc1` [Compound 8], the “effect on parasite survival and infectivity (in words)” value with L. braziliensis and with L. pifanoi was “very effective” each time.

In the case of `CC1(C)CC(=O)c2cc(COC(=O)C/C=C/c3ccccc3)ccc2S1` [Compound 10a, (2,2-Dimethyl-4-oxothiochroman-6-yl)methyl (E)-4-phenylbut-3-enoate], the “S.I. (Selectivity Index) = CC50/IC50” value in series [1] was >3.97. Moreover, half-maximal inhibition in series [1] (Leishmania infantum) (IC50) required 34.4 µM. Besides, in [7], the CC50 (as a rule, the concentration at which the toxic effect on the cells reaches its halfway point) at 72 h is > 136 µM.

As for `CC1(C)CC(=O)c2cc(COC(=O)/C=C/C=C/c3ccc4c(c3)OCO4)ccc2S1` [Compound 10b, (2,2-Dimethyl-4-oxothiochroman-6-yl)methyl (2E,4E)-5-(benzo[d][1,3]dioxol-5-yl)penta-2,4-dienoate], the “S.I. (Selectivity Index) = CC50/IC50” value in series [1] is on record as 0.25. This compound also came in with an IC50 in series [1] (Leishmania infantum) of 91.3 µM. Besides, the CC50 at 72 h in series [7] was determined as 22.5 µM.

As to `CC1(C)CC(=O)c2cc(CNC(=O)C/C=C/c3ccccc3)ccc2S1` [Compound 11a, (E)-N-((2,2-Dimethyl-4-oxothiochroman-6-yl)methyl)-4-phenylbut-3-enamide], in series [1], the “S.I. (Selectivity Index) = CC50/IC50” value is on record as 3.01 and the “activity against L. infantum (in words)” value is “notable anti-leishmanial activity”. This compound displayed an IC50 in [1] (Leishmania infantum) of 10.5 µM. The compound also had a CC50 at 72 h in series [7] of 31.6 µM.

Turning to `CC1(C)CC(=O)c2cc(CNC(=O)/C=C/C=C/c3ccc4c(c3)OCO4)ccc2S1` [Compound 11c, (2E,4E)-5-(Benzo[d][1,3]dioxol-5-yl)-N-((2,2-dimethyl-4-oxothiochroman-6-yl)methyl)penta-2,4-dienamide], the IC50 in [1] (Leishmania infantum) is > 119 µM. Besides, the “activity against L. infantum (in words)” value in series [1] is recorded as “devoid of activity”. Also, the CC50 at 72 h in series [7] is > 119 µM.

With `CCCCCCCC(=O)NCc1ccc2c(c1)C(=O)CC(C)(C)S2` [Compound 11d, N-((2,2-Dimethyl-4-oxothiochroman-6-yl)methyl)octanamide], the “S.I. (Selectivity Index) = CC50/IC50” value in series [1] is recorded as 2.68. The compound also showed an IC50 in series [1] (Leishmania infantum) of 51.3 µM. The compound further yielded a CC50 at 72 h in series [7] of 137 µM.

In the case of `CC1(C)CC(=O)c2cc(CNC(=O)CCCCCCCCBr)ccc2S1` [Compound 11e, 9-Bromo-N-((2,2-dimethyl-4-oxothiochroman-6-yl)methyl)nonanamide], in [1], the “S.I. (Selectivity Index) = CC50/IC50” value came to 8.06 and the “activity against L. infantum (in words)” value was “notable anti-leishmanial activity”. Moreover, in series [1] (Leishmania infantum), the IC50 worked out at 7.2 µM. Moreover, the CC50 at 72 h in series [7] was found to be 58 µM.

On to `CCCCNCc1ccc2c(c1)C(=O)CC(C)(C)S2` [Compound 12a, 6-((Butylamino)methyl)-2,2-dimethylthiochroman-4-one], for which the “S.I. (Selectivity Index) = CC50/IC50” value in series [1] amounted to 1.25. The IC50 in [1] (Leishmania infantum) worked out at 26.5 µM. In addition, the CC50 at 72 h in series [7] was 33.2 µM.

Regarding `CCCCCCNCc1ccc2c(c1)C(=O)CC(C)(C)S2` [Compound 12b, 6-((Hexylamino)methyl)-2,2-dimethylthiochroman-4-one], in [1], the “S.I. (Selectivity Index) = CC50/IC50” value is recorded as 1.12. Also, the IC50 in [1] (Leishmania infantum) came out at 23.1 µM. The CC50 at 72 h in series [7] turned out to be 25.8 µM.

Regarding `CCCCCCCCNCc1ccc2c(c1)C(=O)CC(C)(C)S2` [Compound 12c, 2,2-Dimethyl-6-((octylamino)methyl)thiochroman-4-one], in [1], the “S.I. (Selectivity Index) = CC50/IC50” value is listed as 1.16. In series [1] (Leishmania infantum), the midpoint of inhibition, the IC50, lay at 19.5 µM. The compound further showed a half-maximal cytotoxic concentration (CC50) at 72 h in [7] of 22.6 µM.

In the case of `CCCCCCCCCCNCc1ccc2c(c1)C(=O)CC(C)(C)S2` [Compound 12d, 2,2-Dimethyl-6-((decylamino)methyl)thiochroman-4-one], the “S.I. (Selectivity Index) = CC50/IC50” value in [1] amounted to 1.86. In series [1] (Leishmania infantum), this compound registered an IC50 of 12.4 µM. In series [7], this compound displayed a CC50 at 72 h of 23.1 µM.

For the compound `CCCCCCCCNCc1ccc2c(c1)C(=O)CC(C)(C)[S+]2[O-]` (stereo not shown) [Compound 13, 2,2-Dimethyl-6-((octylamino)methyl)thiochroman-4-one 1-oxide], in series [1], the “S.I. (Selectivity Index) = CC50/IC50” value was found to be 1.22. In series [1] (Leishmania infantum), this compound gave an IC50 of 33.4 µM. This compound had a CC50 at 72 h in series [7] of 40.9 µM.

Consider `CCCCCCCCNCc1ccc2c(c1)C(=O)CC(C)(C)S2(=O)=O` [Compound 14, 2,2-Dimethyl-6-((octylamino)methyl)thiochroman-4-one 1,1-dioxide], for which, in series [1], the “S.I. (Selectivity Index) = CC50/IC50” value is given as 1.27. The compound further yielded an IC50 in series [1] (Leishmania infantum) of 33.8 µM. In addition, in series [7], the CC50 at 72 h was 42.8 µM.

In [7], `COc1cccc2c1C(=O)c1c(O)c3c(c(O)c1C2=O)C[C@@](O)(C(=O)CO)C[C@@H]3O[C@H]1C[C@H](N)[C@H](O)[C@H](C)O1` [Doxorubicin, reference compound] yielded a CC50 at 72 h of 0.047 µM.

In [1], “(2,2-Dimethyl-4-oxothiochroman-6-yl)methyl-6-phenylhex-5-enoate [Compound 11b]” gave an IC50 of 19.9 µM. In addition, the “cytotoxicity to macrophages (in words)” value in the series with J774A.1 cells (J774A.1, compared with activity against axenic amastigotes) is “comparably cytotoxic to macrophages”. The CC50 in the series on J774A.1 cells (MTT, 72 h incubation, mean (standard deviation)) was 14 µM.
